# Experimental data from publication PMC3695784, “2,3-cis-2R,3R-(−)-epiafzelechin-3-O-p-coumarate, a novel flavan-3-ol isolated from Fallopia convolvulus seed, is an estrogen receptor agonist in human cell lines” (BMC Complementary and Alternative Medicine, 2013).
# Key:
# SKBR3 cells [1] = assay: Control SKBR3 cells with ERE-Luc plasmid but not transfected with ER; assay type: cell-based, human; conditions: E2 10 nM, 24 h
# Method: SKBR3 cells were transfected with 0 .2 µ g ERE-Luc plasmid, 0.05 µ g of either pcDNA3ERα or pcDNA3ERβ, and 0.55 µg pcDNA3.1+. Control SKBR3 cells were transfected with 0.2 µ g ERE-Luc plasmid and 0.6 µ g pcDNA3.1+. Cells were treated for 24 h, lysed, and luciferase activity assessed. Luciferaseexpression was normalized using the Bradford assay.
# ERα or ERβ [2] = conditions: E2 standard set as 100%; cited from earlier work
# ERα or ERβ [3] = conditions: greater in ERβ; cited from earlier work
# SKBR3 cells [4] = assay: Toxicity observed in transfected SKBR3 cells (protein concentration, RLU, cell death)
# Method: SKBR3 cells were grown and maintained in high-glucose DMEM and 10% premium FBS. SKBR3 cells were cultured in phenol red-free medium supplemented with 10% charcoal-stripped FBS for 48 h before transfection and seeded in 24-well plates at a density of 300,000 cells/mL. 24 h after plating, cells were transfected for 24 h using Lipofectamine reagent (2 μL/well) according to the manufacturer’s recommendations (0.2 μg of ER-responsive reporter plasmid pGudLuc7ere [32] and 0.05 μg receptor plasmids (ERα/pcDNA3 or ERβ/pcDNA3) or empty vector (pcDNA3.1+) per well, normalizing μg DNA/well to 0.8 μg/well with empty vector). 24 h post-transfection, SKBR3 cells were incubated for 24 h with chemical, the cells harvested, and both protein concentration and luciferase activity determined. Protein concentration was determined using the Bradford assay [35]. Briefly, 5 μL/well SKBR3 lysate was incubated for 5 min at room temperature with 1X Bradford Reagent (200 μL). Protein concentration was calibrated against a standard curve of bovine serum albumin (0.05-0.5 mg/mL) on the same plate and was measured as mg protein/mL using a PhosphorImager (Molecular Dynamics).
# human ERβ = target: T1, human ERβ (Homo sapiens, UniProt Q92731); assay: SKBR3 cells transiently transfected with ERβ and ER-responsive luciferase reporter; assay type: cell-based; conditions: for maximum luciferase induction, percent of maximum E2 activity: ERβ-transfected SKBR3, 10 nM E2 = 100%, normalized to protein
# T1 construct: human ERβ segment (530 aa, GenBank: AF051427.1); expressed in transfected cells; host or cells: SKBR3 (human breast carcinoma), transient transfection with ERβ/pcDNA3
# T1 sequence (Q92731 whole entry): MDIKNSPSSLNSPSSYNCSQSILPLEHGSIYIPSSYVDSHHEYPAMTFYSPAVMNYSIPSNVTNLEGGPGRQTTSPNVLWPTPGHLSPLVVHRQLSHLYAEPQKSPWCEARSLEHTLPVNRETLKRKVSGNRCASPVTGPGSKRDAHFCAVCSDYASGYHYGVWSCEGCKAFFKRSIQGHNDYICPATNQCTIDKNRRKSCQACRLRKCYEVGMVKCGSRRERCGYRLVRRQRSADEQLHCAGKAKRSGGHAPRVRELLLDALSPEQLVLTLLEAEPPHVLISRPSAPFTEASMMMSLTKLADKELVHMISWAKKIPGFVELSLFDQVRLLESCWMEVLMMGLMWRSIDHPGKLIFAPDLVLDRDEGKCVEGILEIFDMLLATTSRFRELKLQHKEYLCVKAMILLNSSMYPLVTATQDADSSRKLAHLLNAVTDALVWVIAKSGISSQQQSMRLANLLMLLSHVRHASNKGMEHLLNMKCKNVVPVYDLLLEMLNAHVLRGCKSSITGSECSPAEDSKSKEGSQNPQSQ
# Excerpt: (§1) The human ERβ expression plasmid (ERβ/pcDNA3) was constructed by PCR amplification of the human ERβ segment (530 aa, GenBank: AF051427.1) out of pCMV5 (kindly provided by Dr. John Katzenellenbogen, University of Illinois) and insertion of this fragment at BstEII and AflII restriction sites into the modified pcDNA3 construct, which was previously described. […] The human ERα expression plasmid, pcDNA3.1 + ERα, was purchased from Missouri S&T cDNA Resouce Center and was confirmed by restriction digestion. […] The generated plasmids were verified by DNA sequencing. Plasmids ERβ/pcDNA3 and ERα/pcDNA3were used as templates for in vitro expression (Additional file 2); ERα and ERβ were synthesized in vitro using the TNT Quick coupled transcription/translation rabbit reticulocyte lysate system (Promega). Briefly, ^35S-Radiolabeled hERα and hERβ were synthesized in separate reactions in vitro according to manufacturer’s protocol, denatured, and subjected to SDS-polyacrylamide gel electrophoresis, and the kDa of each protein was determined by autoradiography of the dried gel.
# (§2) Protein concentration was determined using the Bradford assay.
# (§3) Luciferase activity was expressed as relative light units (RLU) for assays using BG1Luc4E2 cells or as a ratio of luciferase RLU/mg protein for assays using SKBR3 cells. Protein amount (mg) was calculated from concentrations obtained in Bradford assay and the respective luciferase RLU was divided by mg protein to obtain luciferase RLU/mg protein. Average luciferase RLU (or luciferase RLU/mg protein) values were calculated from triplicate wells. Solvent luciferase RLU (or luciferase RLU/mg) was subtracted from luciferase RLU induced by chemical. In the case of extract and fractions, luciferase RLU induced by method blank was subtracted from luciferase RLU induced by extract or fraction. […] The Student’s t-test (2-tailed, paired) was used to establish significant difference of chemical/fraction/extract activity from that of solvent or method blank (p ≤ 0.05), and dose–response curves were fitted using a sigmoidal Hill’s 4-parameter algorithm (SigmaPlot v.9.0, Systat, San Jose, CA), as described previously. Half-maximal inductions of each treatment (EC50) were determined as described in [34].
# BG1Luc4E2 cells = assay: Cell death/toxicity observed in BG1Luc4E2 bioassay; assay type: cell-based, human
# Method: Method blank treatments were included if applicable. […] Protein concentration was determined using the Bradford assay.
# estrogen receptor = target: T2, estrogen receptor (Homo sapiens, UniProt P03372); assay: BG1Luc4E2 stably transfected estrogen-responsive luciferase reporter bioassay; assay type: cell-based
# T2 construct: the BG1Luc4E2 cell line endogenously expresses ERα; endogenous in cells; host or cells: BG1Luc4E2 (human ovarian carcinoma, stably transfected ERE-luciferase reporter)
# T2 sequence (P03372 whole entry): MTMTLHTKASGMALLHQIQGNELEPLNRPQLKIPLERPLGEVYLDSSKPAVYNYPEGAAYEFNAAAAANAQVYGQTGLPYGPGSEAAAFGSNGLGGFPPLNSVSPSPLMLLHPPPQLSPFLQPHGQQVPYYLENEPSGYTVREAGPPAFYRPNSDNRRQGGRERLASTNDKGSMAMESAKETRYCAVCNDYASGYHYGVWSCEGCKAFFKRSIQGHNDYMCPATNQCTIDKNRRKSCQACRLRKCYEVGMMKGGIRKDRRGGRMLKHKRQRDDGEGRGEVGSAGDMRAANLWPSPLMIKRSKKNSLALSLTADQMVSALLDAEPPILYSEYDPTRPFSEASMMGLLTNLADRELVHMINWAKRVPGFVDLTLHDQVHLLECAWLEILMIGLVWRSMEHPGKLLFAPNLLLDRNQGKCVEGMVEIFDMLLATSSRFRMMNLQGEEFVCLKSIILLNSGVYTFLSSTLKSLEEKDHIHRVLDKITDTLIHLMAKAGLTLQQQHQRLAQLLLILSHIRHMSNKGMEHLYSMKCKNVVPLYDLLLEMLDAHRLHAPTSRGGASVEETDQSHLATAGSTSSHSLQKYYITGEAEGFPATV
# Method: as §2, §3
# human ERα = human ERα (Homo sapiens, UniProt P03372); assay: SKBR3 cells transiently transfected with ERα and ER-responsive luciferase reporter; assay type: cell-based
# human ERα, sequence (P03372 311-547): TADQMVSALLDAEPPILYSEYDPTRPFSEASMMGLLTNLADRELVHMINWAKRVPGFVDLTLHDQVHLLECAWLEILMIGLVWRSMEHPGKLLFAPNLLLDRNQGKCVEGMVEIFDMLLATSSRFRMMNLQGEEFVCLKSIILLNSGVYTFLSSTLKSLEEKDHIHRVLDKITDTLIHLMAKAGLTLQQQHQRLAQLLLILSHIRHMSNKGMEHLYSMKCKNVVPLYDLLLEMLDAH
# Excerpt: as §1, §2
# Luciferase activity was expressed as relative light units (RLU) for assays using BG1Luc4E2 cells or as a ratio of luciferase RLU/mg protein for assays using SKBR3 cells. Protein amount (mg) was calculated from concentrations obtained in Bradford assay and the respective luciferase RLU was divided by mg protein to obtain luciferase RLU/mg protein. Average luciferase RLU (or luciferase RLU/mg protein) values were calculated from triplicate wells. Solvent luciferase RLU (or luciferase RLU/mg) was subtracted from luciferase RLU induced by chemical. In the case of extract and fractions, luciferase RLU induced by method blank was subtracted from luciferase RLU induced by extract or fraction. […] Half-maximal inductions of each treatment (EC50) were determined as described in [34].
structure (smiles),measurement,setting,value
"C[C@]12CC[C@@H]3c4ccc(O)cc4CC[C@H]3[C@@H]1CC[C@@H]2O [E2, 17-β-estradiol]",luciferase expression in cells not transfected with ER,SKBR3 cells [1],do not express luciferase
COc1ccc(-c2coc3cc(O)cc(O)c3c2=O)cc1 [biochanin A],"relative binding affinity, ERβ versus ERα",ERα or ERβ [2],greater to ERβ than to ERα
O=c1oc2cc(O)ccc2c2oc3cc(O)ccc3c12 [coumestrol],"relative binding affinity, ERβ versus ERα",ERα or ERβ [2],greater to ERβ than to ERα
O=c1c(-c2ccc(O)cc2)coc2cc(O)ccc12 [diadzein],"relative binding affinity, ERβ versus ERα",ERα or ERβ [2],greater to ERβ than to ERα
"Cc1cc(O)c2c(c1)C(=O)c1cc(O)cc(O)c1C2=O [emodin, reference compound]",REP in ERβ-transfected versus ERα-transfected yeast cells,ERα or ERβ [3],approximately one order of magnitude
same,concentrations toxic to SKBR3 cells,SKBR3 cells [4],greater than 10 μM
same,"maximum luciferase induction, percent of maximum E2 activity",human ERβ,127 ± 26%
same,EC50,"human ERβ; SKBR3 (ERβ), luciferase, 24 h, read-out: EC50 (concentration for half-maximal induction)",3 µM
"O=c1c(-c2ccc(O)cc2)coc2cc(O)cc(O)c12 [genistein, reference compound]",concentrations resulting in significantly decreased RLU,SKBR3 cells [4],greater than 10 μM
"O=C(C=Cc1ccc(O)cc1)OC1Cc2c(O)cc(O)cc2OC1c1ccc(O)cc1 [rhodoeosein, 2,3-cis-(2R,3R)-(−)-epiafzelechin-3-O-p-coumarate]",concentrations that killed BG1Luc4E2 cells,BG1Luc4E2 cells; 24 h incubation,≥ 250 µM
same,"effect on cells at 0.25, 0.316, and 1 mM",BG1Luc4E2 cells; BG1Luc4E2 cells,caused cell death
same,toxicity at 197 μM,"BG1Luc4E2 cells; BG1Luc4E2 cells, 197 μM",no toxicity
same,concentrations resulting in significantly decreased protein concentration,SKBR3 cells [4],greater than 100 μM
same,effect on cells at 0.316 mM,SKBR3 cells [4],caused cell death
same,"maximum luciferase induction, percent of maximum E2 activity",human ERβ,80 ± 10%
same,REP (relative estrogenic potency = EC50 E2/EC50 chemical),human ERβ; SKBR3 (ERβ),1.5 × 10^-5
same,EC50,"estrogen receptor; BG1Luc4E2 (ovarian), luciferase, 24 h, read-out: EC50 (concentration for half-maximal induction)",120 µM
same,concentrations resulting in no luciferase induction,estrogen receptor; BG1Luc4E2 cells,below 31.6 μM
same,orders of magnitude weaker in potency than the E2 standard,estrogen receptor; BG1Luc4E2 cells,approximately 7 orders of magnitude
same,"maximum luciferase induction, percent of maximum E2 activity","estrogen receptor; BG1Luc4E2 cells, 1 nM E2 = 100%, 24 h",> 400%
same,"luciferase induction, percent of maximum E2 activity","estrogen receptor; BG1Luc4E2 cells, 119 μM and 158 μM, superinduction",> 400%
same,"maximum luciferase induction, percent of maximum E2 activity","human ERα; ERα-transfected SKBR3, 10 nM E2 = 100%, normalized to protein",78 ± 8%
same,REP (relative estrogenic potency = EC50 E2/EC50 chemical),human ERα; SKBR3 (ERα),3.4 × 10^-6
same,EC50,"human ERα; SKBR3 (ERα), luciferase, 24 h, read-out: EC50 (concentration for half-maximal induction)",5.8 µM
